Assays:
Format in all cases: in vivo
[1] = test system: panicum, fall (fall panicum Panicum dichotomiflorum); assay: Test F pre-/postemergence: panicum, fall
Description: (§1) Seeds of plant species selected from corn (Zea mays), soybean (Glycine max), velvetleaf (Abutilon theophrasti), lambsquarters (Chenopodium album), poinsettia, wild (wild poinsettia, Euphorbia heterophylla), pigweed, palmer (palmer pigweed, Amaranthus palmeri), waterhemp (common waterhemp, Amaranthus rudis), surinam grass (Brachiaria decumbens), crabgrass, Brazil (Brazilian crabgrass, Digitaria horizontalis), panicum, fall (fall panicum Panicum dichotomiflorum), crabgrass, large (large crabgrass, Digitaria sanguinalis), foxtail, giant (giant foxtail, Setaria faberii), foxtail, green (green foxtail Setaria viridis), goosegrass (Eleusine indica), ragweed (common ragweed, Ambrosia elatior), barnyardgrass (Echinochloa crus-galli), sandbur (southern sandbur, Cenchrus echinatus), arrowleaf sida (Sida rhombifolia), ryegrass, Italian (Italian ryegrass, Lolium multiflorum), dayflower, VA (Virginia (VA) dayflower, Commelina virginica), field bindweed (Convolvulus arvensis), cocklebur (common cocklebur, Xanthium strumarium), morningglory (Ipomoea coccinea), nightshade (eastern black nightshade, Solanum ptycanthum), kochia (Kochia scoparia), nutsedge, yellow (yellow nutsedge, Cyperus esculentus), johnsongrass (Sorghum halepense), smartweed (ladysthumb smartweed, Polygonum persicaria), and beggarticks (hairy beggarticks, Bidens pilosa), were planted into a silt loam soil and treated preemergence with test chemicals formulated in a non-phytotoxic solvent mixture which included a surfactant. At the same time, plants selected from these crop and weed species and also pigweed (Amaranthus retroflexus), waterhemp_RES1 (ALS/Triazine resistant common waterhemp, Amaranthus rudis) and waterhemp_RES2 (ALS/HPPD resistant common waterhemp, Amaranthus rudis) were planted in pots containing a planting medium comprising spaghnum peat moss, vermiculite, wetting agent and starter nutrients treated with postemergence applications of some of the test chemicals formulated in the same manner. Plants ranged in height from 2 to 18 cm for postemergence treatments (1- to 4-leaf stage).
(§2) Treated plants and controls were maintained in a greenhouse for 14 to 21 days, after which time all species were compared to controls and visually evaluated. Plant response ratings, summarized in Table E, are based on a scale of 0 to 100 where 0 is no effect and 100 is complete control. A dash (-) response means no test result.

[2] = test system: velvetleaf (Abutilon theophrasti); assay: Test F pre-/postemergence: velvetleaf; settings: Preemergence
Description: as §1, §2

[3] = test system: ragweed (common ragweed, Ambrosia elatior); assay: Test F pre-/postemergence: ragweed; settings: Preemergence
Description: as §1, §2

kochia (Kochia scoparia) = assay: Test F pre-/postemergence: kochia; settings: Preemergence
Description: as §1, §2

[4] = test system: pigweed, palmer (palmer pigweed, Amaranthus palmeri); assay: Test F pre-/postemergence: pigweed, palmer
Description: as §1, §2

[5] = Preemergence, 16 g ai/ha, scale 0 to 100 (0 no effect, 100 complete control)
[6] = Preemergence, 31 g ai/ha, scale 0 to 100 (0 no effect, 100 complete control)
[7] = Preemergence, 125 g ai/ha, scale 0 to 100
[8] = 16 g ai/ha, scale 0 to 100 (0 no effect, 100 complete control)
[9] = 31 g ai/ha, scale 0 to 100 (0 no effect, 100 complete control)
[10] = Postemergence, 8 g ai/ha, scale 0 to 100
[11] = Postemergence, 16 g ai/ha, scale 0 to 100
[12] = Postemergence, 62 g ai/ha, scale 0 to 100
[13] = Postemergence, 125 g ai/ha, scale 0 to 100
[14] = Preemergence, 250 g ai/ha, scale 0 to 100

Row | Compound | Plant response rating, Panicum, Fall [1, 5] | Plant response rating, Panicum, Fall [1, 6] | Plant response rating, Panicum, Fall [1, 7] | Plant response rating, Velvetleaf [2, 8] | Plant response rating, Velvetleaf [2, 9] | Plant response rating, Velvetleaf ([2]; 125 g ai/ha, scale 0 to 100) | Plant response rating, Ragweed [3, 8] | Plant response rating, Ragweed [3, 9] | Plant response rating, Ragweed ([3]; 125 g ai/ha, scale 0 to 100) | Plant response rating, Kochia (kochia (Kochia scoparia); [8]) | Plant response rating, Kochia (kochia (Kochia scoparia); [9]) | Plant response rating, Kochia (kochia (Kochia scoparia); 62 g ai/ha, scale 0 to 100) | Plant response rating, Kochia (kochia (Kochia scoparia); 125 g ai/ha, scale 0 to 100) | also measured
1 | Fc1ccc(-n2nc(Cc3ccnc(C(F)(F)F)c3)c(OCC(F)(F)F)n2)cc1 [Compound 142] | 25 | 65 | 100 | 0 | 0 | 75 | 0 | 0 | 40 | 20 | 80 | 85 | 95 | –
2 | Cc1nn(-c2ccc(F)c(F)c2)nc1Oc1ccnc(C(F)(F)F)c1 [Compound 145] | – | – | – | – | – | – | – | – | – | – | – | – | – | Plant response rating, Pigweed, Palmer [4, 10]: 40; Plant response rating, Pigweed, Palmer [4, 11]: 70; Plant response rating, Pigweed, Palmer [4, 12]: 85; Plant response rating, Pigweed, Palmer [4, 13]: 90; Plant response rating, Panicum, Fall [1, 10]: 10; Plant response rating, Panicum, Fall [1, 11]: 25; Plant response rating, Panicum, Fall ([1]; Postemergence, 31 g ai/ha, scale 0 to 100): 40; Plant response rating, Panicum, Fall [1, 12]: 40; Plant response rating, Panicum, Fall [1, 13]: 40
3 | CCCc1nn(-c2ccc(F)cc2)nc1Cc1ccnc(C(F)(F)F)c1 [Compound 153] | 5 | 100 | 100 | 20 | 50 | 98 | 5 | 5 | 20 | 25 | 75 | 95 | 100 | Plant response rating, Pigweed, Palmer [4, 5]: 98; Plant response rating, Pigweed, Palmer [4, 6]: 100; Plant response rating, Pigweed, Palmer [4, 7]: 100; Plant response rating, Pigweed, Palmer [4, 14]: 100; Plant response rating, Panicum, Fall [1, 14]: 100; Plant response rating, Velvetleaf ([2]; 250 g ai/ha, scale 0 to 100): 100; Plant response rating, Ragweed ([3]; 250 g ai/ha, scale 0 to 100): 80; Plant response rating, Kochia (kochia (Kochia scoparia); 250 g ai/ha, scale 0 to 100): 100
